Data: patent US20090318461A1, “CRYSTALLINE POLYMORPHISM OF 5-METHYL-2-(PIPERAZIN-1-YL) BENZENESULFONIC ACID” (priority 2006, published 2009)

Legend:
cardiomyocytes = conditions: cited from earlier work
[1] = Measurement of moisture sorption at each relative humidity (water vapor sorption apparatus SGA-100); type: physicochemical; conditions: for moisture sorption (weight increase) at relative humidity 50%: 50% RH; for weight change when humidity was reduced from 95% RH to 5% RH after moisture absorption: humidity decrease 95% RH to 5% RH; for hygroscopicity: from moisture sorption isotherm
Procedure: In the present invention, when moisture sorption at each relative humidity becomes not more than 0.03% in 5 min, or when 3 hours have passed at each relative humidity, the range of relative humidity being from 0% to 95%, the humidity is increased or decreased at 5% intervals, and the moisture sorption isotherms at each relative humidity is obtained gravimetrically by measuring the mass change of a sample.
The above-mentioned moisture sorption can be measured using, for example, SGA-100 type water vapor sorption apparatus (manufactured by VTI) as shown in the Examples. While the error in the relative humidity values depends on the performance of the apparatus, it is about ±1% using this apparatus.
The “moisture sorption” in the present invention refers to the values calculated by the following equation:
moisture sorption (%)=((RM−DM)/DM))*100
wherein DM: sample weight (mg) after sufficient drying at relative humidity 0% RM: sample weight (mg) in the equilibrium state at various relative humidities
For moisture sorption isotherms, when weight variation under each relative humidity condition becomes not more than 0.03% in 5 min, or when 3 hours have passed at each relative humidity, the range of relative humidity being from 0% to 95%, the humidity is increased or decreased at 5% intervals, and the moisture sorption isotherms at each relative humidity is obtained gravimetrically by measuring the mass change of a sample. The “RH” in the preset Examples means “relative humidity”.
5-Methyl-2-(piperazin-1-yl)benzenesulfonic acid monohydrate was dried for 60 min by heating in a sample booth at 80° C. under nitrogen substitution. The sample was used as sample 7 (type-I anhydrate crystal), and measured for moisture sorption from 5% RH.
The sample 2 (type-II anhydrate crystal) obtained in Example 2 was dried for 60 min by heating in a sample booth at 80° C. under nitrogen substitution, and measured for moisture sorption from 5% RH.

[2] = Thermal analysis (DSC822e) of monohydrate crystals; type: physicochemical; conditions: 25-300° C., 20° C./min, dry nitrogen gas
Procedure: In Examples 3, 4 and Experimental Examples 5, 6, each crystal forms was confirmed by powder X-ray diffractometer (manufactured by Bruker) GADDS detector system and thermal analysis equipment (manufactured by Mettler-Toledo) DSC822e system.
For thermal analysis, the measurement was performed in a dry nitrogen gas stream (50 mL/min) from 25° C. to 300° C. at a temperature rise rate of 20° C./min.
Using the solids obtained in Examples 3 and 4 as sample 8 (type-II monohydrate crystal) and sample 9 (type-III monohydrate crystal), respectively, the thermal analysis was performed under the following conditions.
apparatus: DSC822e manufactured by Metter-Toledo temperature rise rate: 20° C./min atmosphere: dry nitrogen gas 50 mL/min measurement temperature: 25-300° C.

[3] = humidity increase from 5% RH to 95% RH

Cc1ccc(N2CCNCC2)c(S(=O)(=O)O)c1 [compound A, 5-methyl-2-(piperazin-1-yl)benzenesulfonic acid]
suppression of excessive influx of calcium ions into cardiomyocytes (cardiomyocytes): remarkably suppresses

Cc1ccc(N2CCNCC2)c(S(=O)(=O)O)c1 [type-I anhydrate crystal, 5-methyl-2-(piperazin-1-yl)benzenesulfonic acid anhydrate]
moisture sorption (weight increase) at relative humidity 50% ([1]; humidity increase from 5% RH to 95% RH, listed as sample 7): about 6.0%
weight change when humidity was reduced from 95% RH to 5% RH after moisture absorption [1]: weight change was not observed
relative humidity from which moisture absorption was shown [1, 3]: 10 % RH

Cc1ccc(N2CCNCC2)c(S(=O)(=O)O)c1 [type-II anhydrate crystal, 5-methyl-2-(piperazin-1-yl)benzenesulfonic acid anhydrate]
moisture sorption in the range of 0-50% RH ([1]; 0-50% RH, humidity increase from 5% RH to 95% RH): about 2.0%
moisture sorption (weight increase) at relative humidity 50% [1, 3]: not more than 2%
weight increase around 60% RH ([1]; around 60% RH, humidity increase from 5% RH to 95% RH): about 6.5%
hygroscopicity [1]: less hygroscopic
hygroscopicity ([1]; listed as sample 2): hardly present
weight change when humidity was reduced from 95% RH to 5% RH after moisture absorption [1]: weight change was not observed

Cc1ccc(N2CCNCC2)c(S(=O)(=O)O)c1 [type-II monohydrate crystal, 5-methyl-2-(piperazin-1-yl)benzenesulfonic acid monohydrate]
crystal stability by thermal analysis (no noticeable endothermic and exothermic peaks up to around 80° C.) [2]: stable
